Data on 25 compounds can be found in patent US20050026911A1, “Benzotriazapinone salts and methods for using same” (priority 2003, published 2005).

The target in the assay is T1, gastrin (CCK2) receptors (Rattus norvegicus, UniProt P30553).
T1 construct: The stomach was excised and flushed with ca. 1 ml of unbuffered physiological saline solution; from tissue; host or cells: isolated whole stomach of immature rats (ca. 21 days old)
T1 sequence (P30553 1-452): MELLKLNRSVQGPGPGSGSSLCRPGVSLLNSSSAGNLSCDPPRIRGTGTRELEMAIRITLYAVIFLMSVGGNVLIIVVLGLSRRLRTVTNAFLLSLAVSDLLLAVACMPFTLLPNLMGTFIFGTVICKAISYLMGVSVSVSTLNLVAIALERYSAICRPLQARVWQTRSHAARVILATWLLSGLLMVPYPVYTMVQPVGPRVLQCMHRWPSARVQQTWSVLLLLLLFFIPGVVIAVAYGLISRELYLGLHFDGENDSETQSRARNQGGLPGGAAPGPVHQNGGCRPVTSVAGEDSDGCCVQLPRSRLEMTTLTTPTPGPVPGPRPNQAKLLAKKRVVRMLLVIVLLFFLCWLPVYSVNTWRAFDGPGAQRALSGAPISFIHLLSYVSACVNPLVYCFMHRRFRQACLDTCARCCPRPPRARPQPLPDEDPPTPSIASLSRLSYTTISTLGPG
Put plainly: gastrin (CCK2) antagonist activity in an immature rat stomach assay. As to conditions: pentagastrin dose-response curves, acid secretion, read-out: pKB rat stomach (converted). How it is done:
The compounds of the examples were tested for gastrin (CCK2) antagonist activity in an immature rat stomach assay. The procedure was as follows:
The oesophagus of immature rats (33-50 g, ca. 21 days old) was ligated at the level of the cardiac sphincter and the duodenal sphincter was cannulated. The stomach was excised and flushed with ca. 1 ml of unbuffered physiological saline solution. The fundus was punctured and cannulated. A further 4-5 ml of unbuffered solution was flushed through the stomach to ensure the preparation was not leaking. […] The stomach was continuously perfused at a rate of 1 ml min^−1 with unbuffered solution gassed with 100% O2 with the perfusate passing over an internally referenced pH-electrode fixed 12 cm above the stomach.
After 120 min of stabilisation the drugs were added directly to the serosal solution in the organ bath and after a further 60 min cumulative pentagastrin dose-response curves were started.

Consider `CC(Nc1cccc(NC(=O)CN2N=C(C3CCCCC3)c3ccccc3N(CC(=O)C(C)(C)C)C2=O)c1)C(=O)O` (racemic) [Example 75, 2-(3{2-[5-Cyclohexyl-1-(3,3-dimethyl-2-oxo-butyl)-2-oxo-1,2-dihydro-3H-1,3,4-benzotriazepin-3-yl]-acetylamino}-phenylamino)-propionic acid], for which the Kb is 0.209 µM.
Under `CC(C)(C)C(=O)CN1C(=O)N(CC(=O)Nc2cccc(N3CCCC3C(=O)O)c2)N=C(C2CCCCC2)c2ccccc21` (stereo in doubt) [Example 76, (R)-]-(3-{2-[5-Cyclohexyl-1-(3,3-dimethyl-2-oxobutyl)-2-oxo-1,2-dihydro-3H-1,3,4-benzotriazepin-3-yl]-acetylamino}-phenyl)-pyrrolidine-2-carboxylic acid] stands 0.11 µM; under `COC(=O)c1cccc(NC(=O)CN2N=C(C3CCCCC3)c3ccccc3N(CC(=O)C(C)(C)C)C2=O)c1` [Example 1, 3-{2-[5-Cyclohexyl-1-(3,3-dimethyl-2-oxo-butyl)-2-oxo-1,2-dihydro-3H-1,3,4-benzotriazepin-3-yl]-acetylamino}-benzoic acid methyl ester], 0.00282 µM; under `CC(C)(C)C(=O)CN1C(=O)N(CC(=O)Nc2cccc(C(=O)O)c2)N=C(C2CCCCC2)c2ccccc21` [Example 2, 3-{2-[5-Cyclohexyl-1-(3,3-dimethyl-2-oxo-butyl)-2-oxo-1,2-dihydro-3H-1,3,4-benzotriazepin-3-yl]-acetylamino}-benzoic acid], 0.000661 µM.
As for `CNc1cccc(NC(=O)CN2N=C(c3ccccc3)c3ccccc3N(CC(=O)C(C)(C)C)C2=O)c1` [Example 4, 2-[1-(3,3-Dimethyl-2-oxo-butyl)-2-oxo-5-phenyl-1,2-dihydro-3H-1,3,4-benzotriazepin-3-yl]-N-(3-methylamino-phenyl)-acetamide], the figure is 0.132 µM; as for `CNc1cccc(NC(=O)CN2N=C(c3ccccn3)c3ccccc3N(CC(=O)C(C)(C)C)C2=O)c1` [Example 5, 2-[1-(3,3-Dimethyl-2-oxo-butyl)-2-oxo-5-pyridin-2-yl-1,2-dihydro-3H-1,3,4-benzotriazepin-3-yl]-N-(3-methylamino-phenyl)-acetamide], 0.24 µM.
With `CNc1cccc(NC(=O)CN2N=C(c3ccccn3)c3ccccc3N(CC(=O)N3CCCC3)C2=O)c1` [Example 6], the Kb was 1.05 µM.
As for `CNc1cccc(NC(=O)CN2N=C(c3ccccn3)c3ccccc3N(CC(=O)c3ccccc3C)C2=O)c1` [Example 7, N-(3-Methylamino-phenyl)-2-[2-oxo-1-(2-oxo-2-o-tolyl-ethyl)-5-pyridin-2-yl-1,2-dihydro-3H-1,3,4-benzotriazepin-3-yl]-acetamide], the figure is 0.0501 µM.
On to `CNc1cccc(NC(=O)NCN2N=C(c3ccccn3)c3ccccc3N(CC(=O)C(C)(C)C)C2=O)c1` [Example 8, 1-[1-(3,3-Dimethyl-2-oxo-butyl)-2-oxo-5-pyridin-2-yl-1,2-dihydro-3H-1,3,4-benzotriazepin-3-ylmethyl]-3-(3-methylamino-phenyl)-urea], for which the Kb was 0.263 µM.
As for `CC(C)(C)C(=O)CN1C(=O)N(CC(=O)Nc2cccc(C(=O)O)c2)N=C(C2CCCC2)c2ccccc21` [Example 9, 3-{2-[5-Cyclopentyl-1-(3,3-dimethyl-2-oxo-butyl)-2-oxo-1,2-dihydro-3H-1,3,4-benzotriazepin-3-yl]-acetylamino}-benzoic acid], the figure is 0.0759 µM; as for `CC(C)(C)C(=O)CN1C(=O)N(CC(=O)Nc2cccc(-c3nn[nH]n3)c2)N=C(C2CCCC2)c2ccccc21` [Example 10, 2-[5-Cyclopentyl-1-(3,3-dimethyl-2-oxo-butyl)-2-oxo-1,2-dihydro-3H-1,3,4-benzotriazepin-3-yl]-[3-(2H-tetrazol-5-yl)-phenyl]-acetamide], 0.0891 µM; as for `CNc1cccc(NC(=O)CN2N=C(C3CCCC3)c3ccccc3N(CC(=O)C(C)(C)C)C2=O)c1` [Example 11, 2-[5-Cyclopentyl-1-(3,3-dimethyl-2-oxo-butyl)-2-oxo-1,2-dihydro-3H-1,3,4-benzotriazepin-3-yl]-N-(3-methylaminophenyl)-acetamide], 0.0447 µM.
As for `CNc1cccc(NC(=O)CN2N=C(CC(C)C)c3ccccc3N(CC(=O)C(C)(C)C)C2=O)c1` [Example 13, 2-[1-(3,3-Dimethyl-2-oxo-butyl)-5-isobutyl-2-oxo-1,2-dihydro-3H-1,3,4-benzotriazepin-3-yl]-N-(3-methylaminophenyl)-acetamide], the figure is 0.0513 µM; as for `CC(C)CCN1C(=O)N(CC(=O)Nc2cccc(C(=O)O)c2)N=C(C2CCCCC2)c2ccccc21` [Example 16, 3-{2-[5-Cyclohexyl-1-(3-methyl-butyl)-2-oxo-1,2-dihydro-3H-1,3,4-benzotriazepin-3-yl]-acetylamino}-benzoic acid], 0.0427 µM; as for `O=C(CN1N=C(C2CCCCC2)c2ccccc2N(CC(=O)C23CC4CC(CC(C4)C2)C3)C1=O)Nc1cccc(C(=O)O)c1` [Example 17, 3-{2-[1-(2-Adamantan-1-yl-2-oxo-ethyl)-5-cyclohexyl-2-oxo-1,2-dihydro-3H-1,3,4-benzotriazepin-3-yl]-acetylamino}-benzoic acid], 0.115 µM.
Under `CC(C)(C)C(=O)CN1C(=O)N(CC(=O)Nc2cccc(-c3nn[nH]n3)c2)N=C(C2CCCCC2)c2ccccc21` [Example 23, 2-[5-Cyclohexyl-1-(3,3-dimethyl-2-oxo-butyl)-2-oxo-1,2-dihydro-3H-1,3,4-benzotriazepin-3-yl]-N-[3-(2H-tetrazol-5-yl)-phenyl]-acetamide] stands 0.0112 µM; under `CC(C)(C)C(=O)CN1C(=O)N(CC(=O)Nc2cccc(NS(C)(=O)=O)c2)N=C(C2CCCCC2)c2ccccc21` [Example 26, 2-[5-Cyclohexyl-1-(3,3-dimethyl-2-oxo-butyl)-2-oxo-1,2-dihydro-3H-1,3,4-benzotriazepin-3-yl]-N-(3-methanesulfonylamino-phenyl)-acetamide], 0.457 µM; under `CC(C)(C)C(=O)CN1C(=O)N(CC(=O)Nc2cccc(CC(=O)O)c2)N=C(C2CCCCC2)c2ccccc21` [Example 29, (3-{2-[5-Cyclohexyl-1-(3,3-dimethyl-2-oxo-butyl)-2-oxo-1,2-dihydro-3H-1,3,4-benzotriazepin-3-yl]-acetylamino}-phenyl)-acetic acid], 0.0617 µM.
Take `COc1ccc(NC(=O)CN2N=C(C3CCCCC3)c3ccccc3N(CC(=O)C(C)(C)C)C2=O)cc1` [Example 32, 2-[5-Cyclohexyl-1-(3,3-dimethyl-2-oxo-butyl)-2-oxo-1,2-dihydro-3H-1,3,4-benzotriazepin-3-yl]-N-(4-methoxy-phenyl)-acetamide]: the Kb was 0.0776 µM.
Under `CN(C)c1cccc(NC(=O)CN2N=C(C3CCCCC3)c3ccccc3N(CC(=O)C(C)(C)C)C2=O)c1` [Example 33, 2-[5-Cyclohexyl-J-(3,3-dimethyl-2-oxo-butyl)-2-oxo-1,2-dihydro-3H-1,3,4-benzotriazepin-3-yl]-N-(3-dimethylamino-phenyl)-acetamide] stands 0.0912 µM; under `CC(C)(C)C(=O)CN1C(=O)N(CC(=O)Nc2ccc3c(c2)N(CC(=O)O)CC3)N=C(C2CCCCC2)c2ccccc21` [Example 34, (6-{2-[5-Cyclohexyl-1-(3,3-dimethyl-2-oxo-butyl)-2-oxo-1,2-dihydro-3H-1,3,4-benzotriazepin-3-yl]-acetylamino}-2,3-dihydro-indol-1-yl)-acetic acid], 0.0158 µM.
Under `CC(C)(C)C(=O)CN1C(=O)N(CC(=O)Nc2cccc(SCC(=O)O)c2)N=C(C2CCCCC2)c2ccccc21` [Example 38, (3-{2-[5-Cyclohexyl-1-(3,3-dimethyl-2-oxo-butyl)-2-oxo-1,2-dihydro-3H-1,3,4-benzotriazepin-3-yl]-acetylamino}-phenylsulfanyl)-acetic acid] stands 0.00661 µM; under `CC(C)(C)C(=O)CN1C(=O)N(CC(=O)Nc2cc(C(=O)O)cc(C(=O)O)c2)N=C(C2CCCCC2)c2ccccc21` [Example 39, 5-{2-[5-Cyclohexyl-1-(3,3-dimethyl-2-oxo-butyl)-2-oxo-1,2-dihydro-3H-1,3,4-benzotriazepin-3-yl]-acetylamino}-isophthalic acid], 0.00759 µM; under `CC(C)(C)C(=O)CN1C(=O)N(CC(=O)Nc2cccc(C(=O)NS(C)(=O)=O)c2)N=C(C2CCCCC2)c2ccccc21` [Example 40], 0.0229 µM.
Under `CCOCCNc1cccc(NC(=O)CN2N=C(C3CCCCC3)c3ccccc3N(CC(=O)C(C)(C)C)C2=O)c1` [Example 42, 2-[5-Cyclohexyl-1-(3,3-dimethyl-2-oxo-butyl)-2-oxo-1,2-dihydro-3H-1,3,4-benzotriazepin-3-yl]-N-[3-(2-ethoxy-ethylamino)-phenyl)-acetamide] stands 0.105 µM.
